In US5312622A, “Acaricidal compositions and process for preparing same” (Richter Gedeon Vegyeszeti Gyar Rt., priority 1992, dated 1994):

How the values were obtained:
Apis mellifera = conditions: bee; comparison value, no test described; cited from earlier work
Varroa jacobsoni = assay: Treatment of Varroa jacobsoni-infected bee families in hives, number of perished mites (Example 38); format: in vivo, Varroa jacobsoni mites on Apis mellifera
Experimental: Three families of bees, being present in good condition on nine frames, were infected with `Varroa jacobsoni` to a medium extent, then treated three times, on every third day with the cell-free fermentation broth prepared as described in Example 8 a). Each time, 60 ml of the cell-free fermentation broth prepared as described in Example 8 a) was evenly sprayed by using an airpump spraying device on the honeycomb surfaces and the bees swarming on such surfaces. In addition, each bee family was exposed to the effect of a smoking strip containing 30 mg of amitrase active agent (ANTIVAR for veterinary use) on the third day after the last treatment.
Three other bee families used as control were treated only with ANTIVAR (30 mg of amitrase) in the periods of treatments by the fermentation broth prepared in Example 8 a). Then the number of perished mites and bees inside the hive was counted and registered. Also, the general condition and behavior of the families and the queen-bee were observed.
A tray made of aluminum and provided with a 5 mm high folded rim was placed on the floor-plate of the bee-hives. In case of necessity, the tray could be removed or replaced through an appropriately shaped opening made in the plane of the floor-plate, without the need to open the bee-hive itself.
Under the term of "inhabited strip of the honeycomb" we mean the area stretching between two adjacent sections of the honeycomb was meant where at least 70 to 80% of opposite surfaces of the honeycomb were covered by bees.
By each treatment, 60 ml of cell-free undiluted fermentation broth, prepared as described in Example 8a) and kept at room temperature, were sprayed by using a manually operated air-jet device onto the entire surface of nine frames holding three families of bees (i.e. onto a surface of 27 216 cm^2 per family). The bees covered the honeycomb surface quite evenly during the spraying. The smoking strip containing the amitrase active agent (ANTIVAR) used as control was bent in a "V"-form and placed onto the aluminum tray, then lit and pushed inside the bee-hive. The exit opening was kept closed for one hour.
a) The number of perished mites was registered in the 24th, 48th and 72nd hour after treatments.
Number of perished Varroa jacobsoni mites each per bee family after treatments carried out every 3rd day, 3 times altogether by using the cell-free fermentation broth prepared as described in Example 8a) followed by a treatment with amitrase
Number of perished "Varroa jacobsoni" mites each per bee family after treatment in every third day, 4 times altogether by using 30 mg of amitrase per treatment (control)

Cc1ccc(N=CN(C)C=Nc2ccc(C)cc2C)c(C)c1 [amitrase]
LD50 (Apis mellifera): 12 microgram/bee | effect (Varroa jacobsoni; amitrase-treating, as shown in example 38): < 100% | Number of perished mites (Varroa jacobsoni; control group, 4th amitrase treatment (30 mg), 24 h after treatment, bee family No. 1): 57 | Number of perished mites (Varroa jacobsoni; control group, 4th amitrase treatment (30 mg), 24 h after treatment, bee family No. 2): 55 | Number of perished mites (Varroa jacobsoni; control group, 4th amitrase treatment (30 mg), 24 h after treatment, bee family No. 3): 32 | Number of perished mites (Varroa jacobsoni; control group, 4th amitrase treatment (30 mg), 48 h after treatment, bee family No. 1): 4 | Number of perished mites (Varroa jacobsoni; control group, 4th amitrase treatment (30 mg), 48 h after treatment, bee family No. 2): 0 | Number of perished mites (Varroa jacobsoni; control group, 4th amitrase treatment (30 mg), 48 h after treatment, bee family No. 3): 4 | Number of perished mites (Varroa jacobsoni; control group, 4th amitrase treatment (30 mg), 72 h after treatment, bee family No. 1): 1 | Number of perished mites (Varroa jacobsoni; control group, 4th amitrase treatment (30 mg), 72 h after treatment, bee family No. 2): 0 | Number of perished mites (Varroa jacobsoni; control group, 4th amitrase treatment (30 mg), 72 h after treatment, bee family No. 3): 1 | Number of perished mites, Total (Varroa jacobsoni; control group, 4th amitrase treatment (30 mg), total, bee family No. 1): 62 | Number of perished mites, Total (Varroa jacobsoni; control group, 4th amitrase treatment (30 mg), total, bee family No. 2): 55 | Number of perished mites, Total (Varroa jacobsoni; control group, 4th amitrase treatment (30 mg), total, bee family No. 3): 37 | Number of perished mites (Varroa jacobsoni; treatment 1, 24 h after treatment, bee family No. 1): 164 | Number of perished mites (Varroa jacobsoni; treatment 1, 24 h after treatment, bee family No. 2): 241 | Number of perished mites (Varroa jacobsoni; treatment 1, 24 h after treatment, bee family No. 3): 190 | Number of perished mites (Varroa jacobsoni; treatment 1, 48 h after treatment, bee family No. 1): 3 | Number of perished mites (Varroa jacobsoni; treatment 1, 48 h after treatment, bee family No. 2): 12 | Number of perished mites (Varroa jacobsoni; treatment 1, 48 h after treatment, bee family No. 3): 3 | Number of perished mites (Varroa jacobsoni; treatment 1, 72 h after treatment, bee family No. 1): 0 | Number of perished mites (Varroa jacobsoni; treatment 1, 72 h after treatment, bee family No. 2): 1 | Number of perished mites (Varroa jacobsoni; treatment 1, 72 h after treatment, bee family No. 3): 0 | Number of perished mites, Total (Varroa jacobsoni; treatment 1, total, bee family No. 1): 167 | Number of perished mites, Total (Varroa jacobsoni; treatment 1, total, bee family No. 2): 254 | Number of perished mites, Total (Varroa jacobsoni; treatment 1, total, bee family No. 3): 193 | Number of perished mites (Varroa jacobsoni; treatment 2, 24 h after treatment, bee family No. 1): 68 | Number of perished mites (Varroa jacobsoni; treatment 2, 24 h after treatment, bee family No. 2): 87 | Number of perished mites (Varroa jacobsoni; treatment 2, 24 h after treatment, bee family No. 3): 37 | Number of perished mites (Varroa jacobsoni; treatment 2, 48 h after treatment, bee family No. 1): 0 | Number of perished mites (Varroa jacobsoni; treatment 2, 48 h after treatment, bee family No. 2): 3 | Number of perished mites (Varroa jacobsoni; treatment 2, 48 h after treatment, bee family No. 3): 1 | Number of perished mites (Varroa jacobsoni; treatment 2, 72 h after treatment, bee family No. 1): 0 | Number of perished mites (Varroa jacobsoni; treatment 2, 72 h after treatment, bee family No. 2): 1 | Number of perished mites (Varroa jacobsoni; treatment 2, 72 h after treatment, bee family No. 3): 0 | Number of perished mites, Total (Varroa jacobsoni; treatment 2, total, bee family No. 1): 68 | Number of perished mites, Total (Varroa jacobsoni; treatment 2, total, bee family No. 2): 91 | Number of perished mites, Total (Varroa jacobsoni; treatment 2, total, bee family No. 3): 38 | Number of perished mites (Varroa jacobsoni; treatment 3, 24 h after treatment, bee family No. 1): 21 | Number of perished mites (Varroa jacobsoni; treatment 3, 24 h after treatment, bee family No. 2): 35 | Number of perished mites (Varroa jacobsoni; treatment 3, 24 h after treatment, bee family No. 3): 24 | Number of perished mites (Varroa jacobsoni; treatment 3, 48 h after treatment, bee family No. 1): 0 | Number of perished mites (Varroa jacobsoni; treatment 3, 48 h after treatment, bee family No. 2): 2 | Number of perished mites (Varroa jacobsoni; treatment 3, 48 h after treatment, bee family No. 3): 1 | Number of perished mites (Varroa jacobsoni; treatment 3, 72 h after treatment, bee family No. 1): 0 | Number of perished mites (Varroa jacobsoni; treatment 3, 72 h after treatment, bee family No. 2): 0 | Number of perished mites (Varroa jacobsoni; treatment 3, 72 h after treatment, bee family No. 3): 2 | Number of perished mites, Total (Varroa jacobsoni; treatment 3, total, bee family No. 1): 21 | Number of perished mites, Total (Varroa jacobsoni; treatment 3, total, bee family No. 2): 37 | Number of perished mites, Total (Varroa jacobsoni; treatment 3, total, bee family No. 3): 27 | Number of perished mites (Varroa jacobsoni; treatment 4: amitrase (30 mg) after 3 treatments with Example 8a) broth, 24 h, bee family No. 1): 225 | Number of perished mites (Varroa jacobsoni; treatment 4: amitrase (30 mg) after 3 treatments with Example 8a) broth, 24 h, bee family No. 2): 134 | Number of perished mites (Varroa jacobsoni; treatment 4: amitrase (30 mg) after 3 treatments with Example 8a) broth, 24 h, bee family No. 3): 94 | Number of perished mites (Varroa jacobsoni; treatment 4: amitrase (30 mg) after 3 treatments with Example 8a) broth, 48 h, bee family No. 1): 24 | Number of perished mites (Varroa jacobsoni; treatment 4: amitrase (30 mg) after 3 treatments with Example 8a) broth, 48 h, bee family No. 2): 4 | Number of perished mites (Varroa jacobsoni; treatment 4: amitrase (30 mg) after 3 treatments with Example 8a) broth, 48 h, bee family No. 3): 11 | Number of perished mites (Varroa jacobsoni; treatment 4: amitrase (30 mg) after 3 treatments with Example 8a) broth, 72 h, bee family No. 1): 0 | Number of perished mites (Varroa jacobsoni; treatment 4: amitrase (30 mg) after 3 treatments with Example 8a) broth, 72 h, bee family No. 2): 1 | Number of perished mites (Varroa jacobsoni; treatment 4: amitrase (30 mg) after 3 treatments with Example 8a) broth, 72 h, bee family No. 3): 0 | Number of perished mites, Total (Varroa jacobsoni; treatment 4: amitrase (30 mg) after 3 treatments with Example 8a) broth, total, bee family No. 1): 249 | Number of perished mites, Total (Varroa jacobsoni; treatment 4: amitrase (30 mg) after 3 treatments with Example 8a) broth, total, bee family No. 2): 139 | Number of perished mites, Total (Varroa jacobsoni; treatment 4: amitrase (30 mg) after 3 treatments with Example 8a) broth, total, bee family No. 3): 105
